From US9101539B2, “Intranasal pharmaceutical compositions with improved pharmacokinetics” (SHIN NIPPON BIOMEDICAL LABORATORIES, LTD., priority 2009, dated 2015)
Values belong to the compound of their own block, whether it stands above or below them.

Assays:
in vivo = details: rhesus monkey, inhaled or intranasal
Description: Blood was obtained at 10, 20, 30, 60, 120, 240, and 480 minutes post-administration from the monkeys administered the solid dosage form. For the monkeys treated with the nasal spray, blood was obtained 5, 10, 20, 30, 60, 120, 240, and 480 minutes post-treatment.
Blood was obtained at 5, 10, 20, 30, 60, 120, and 240 minutes post-administration.
Administered dose was 6 mg/animal. […] Blood was obtained at 5, 10, 20, 30, 60, 120, and 240 minutes post-administration.
(§1) Administered dose was 6 mg/animal. […] Administered dose was 6 mg/animal. Blood was obtained at 5, 10, 20, 30, 60, 120, and 240 minutes post-administration.
Total dose was 6 mg/animal. Blood was obtained at 5, 10, 20, 30, 60, 120, and 240 minutes post-administration.
as §1, §1
(§2) Administered dose was 6 mg/animal. […] Administered dose was 6 mg/animal. […] Blood was obtained at 5, 10, 20, 30, 60, 120, and 240 minutes post-administration.
as §2

[1] = Zolmitriptan pharmacokinetics (plasma concentration versus time) in rhesus monkeys; type: in vivo; details: 5 mg/animal; for Tmax: intranasal dry powder, n=2
Description: The pharmacokinetics of a zolmitriptan liquid nasal spray and a dry powder formulation were studied in two groups of rhesus monkeys. One group, n=2, was administered a nasal spray of zolmitriptan (Zomig®, 5 mg/100 μl in an aqueous buffered solution). A second, n=2, was administered intranasal zolmitriptan freebase with a particle size of <15 μm. The administered dose was 5 mg/animal.
One group, n=2, was administered intranasal zolmitriptan freebase with a particle size of <15 μm. Administered dose was 5 mg/animal. […] Administered dose was 5 mg/animal.

[2] = intranasal dry powder <15 μm, versus Zomig nasal spray

- Cmax among the formulations tested that contained freebase (in vivo): highest
SMILES: CNS(=O)(=O)Cc1ccc2[nH]cc(CCN(C)C)c2c1 [sumatriptan freebase]

- Cmax (in vivo; 6 mg, Cmax): 696 ng/mL
- Tmax (in vivo; 6 mg, Tmax): 7.5 min
SMILES: CNS(=O)(=O)Cc1ccc2[nH]cc(CCN(C)C)c2c1 [sumatriptan succinate]

- BA compared with the liquid spray [1, 2]: significantly increased
- Cmax compared with the liquid spray [1, 2]: significantly increased
- Tmax ([1]; 50% of the particles <15 μm and 50% 38 μm-100 μm): 20 min
- Tmax ([1]; particle size <15 μm): 10 min
SMILES: CN(C)CCc1c[nH]c2ccc(C[C@H]3COC(=O)N3)cc12 [zolmitriptan freebase]
